Melting point data for nine molecules are collected here from patent US20090069408A1, “TRICYCLIC COMPOUNDS USEFUL IN TREATING IRON DISORDERS” (XENON PHARMACEUTICALS INC., priority 2007, published 2009).

As usually defined, the melting point is the temperature of the solid-liquid transition.

Structures can show the parent of a compound that is named as a salt. A value given as a limit tells only on which side of the number the result lay.

The molecule `N=C(N)SCc1cccc2cc3cccc(CSC(=N)N)c3cc12` (as salt: hydrobromid) [Example 1.9, anthracene-1,8-diylbis(methylene) dicarbamimidothioate dihydrobromide] returned a melting point above 250 °C.
As for `N=C(N)SCc1cccc2c1sc1c(CSC(=N)N)cc(F)cc12` (as salt: hydrobromid) [Example 1.10, (2-fluorodibenzo[b,d]thiophene-4,6-diyl)bis(methylene) dicarbamimidothioate dihydrobromide], the melting point is above 230 °C.
The result for `N=C(N)SCc1cccc2c1Oc1c(CSC(=N)N)cccc1S2` (as salt: hydrobromid) [Example 1.12, phenoxathiine-4,6-diylbis(methylene) dicarbamimidothioate dihydrobromide] reads above 230 °C; that for `N=C(N)SCc1cccc2sc3cccc(CSC(=N)N)c3c12` (as salt: hydrobromid) [Example 1.14, dibenzo[b,d]thiophene-1,9-diylbis(methylene) dicarbamimidothioate dihydrobromide], 228 to 230 °C; that for `N=C(N)SCc1cccc2c1-c1c(CSC(=N)N)cccc1C2=O` (as salt: hydrobromid) [Example 1.15, (9-oxo-9H-fluorene-4,5-diyl)bis(methylene) dicarbamimidothioate dihydrobromide], 218 to 220 °C.
The result for `N=C(N)SCc1cccc2c(=O)c3cccc(CSC(=N)N)c3oc12` (as salt: hydrobromid) [Example 1.16, (9-oxo-9H-xanthene-4,5-diyl)bis(methylene) dicarbamimidothioate dihydrobromide] reads above 230 °C.
For `Cc1c2cccc(CSC(=N)N)c2nc2c(CSC(=N)N)cccc12` (as salt: hydrobromid) [Example 1.17, (9-methylacridine-4,5-diyl)bis(methylene) dicarbamimidothioate dihydrobromide], the melting point was > 270 °C (dec.).
Regarding `N=C(N)SCc1cccc2c1-c1c(cccc1CSC(=N)N)CSC2` (as salt: hydrobromid) [Example 1.19, (5,7-dihydrodibenzo[c,e]thiepine-1,11-diyl)bis(methylene) dicarbamimidothioate dihydrobromide], the melting point fell in the range of 155 to 158 °C.
`N=C(N)SCc1cc(F)cc2c1-c1c(CSC(=N)N)cc(F)cc1-2` (as salt: hydrobromid) [Example 5, (3,6-difluorobiphenylene-1,8-diyl)bis(methylene) dicarbamimidothioate dihydrobromide] registered a melting point above 250 °C.
